Data taken from the NIST ThermoML archive (doi:10.1016/j.fluid.2004.10.028).
Numbers after ± are expanded uncertainties.

Conditions: Liquid, Capillary tube (Ostwald / Ubbelohde) method

O [water]
viscosity [mPa·s]
Conditions	296.7 K	338.3 K	372.4 K	413.62 K	469.4 K	500.22 K	544.23 K	573.7 K
5000 kPa	0.918 ± 0.028	0.431 ± 0.013	0.286 ± 0.009	0.196 ± 0.006	–	–	–	–
10000 kPa	0.917 ± 0.028	0.434 ± 0.013	0.287 ± 0.009	0.197 ± 0.006	0.138 ± 0.004	0.12 ± 0.004	0.0983 ± 0.0032	0.086 ± 0.0028
20000 kPa	0.915 ± 0.028	0.435 ± 0.013	0.288 ± 0.009	0.201 ± 0.006	0.141 ± 0.004	0.123 ± 0.004	0.1012 ± 0.0033	0.0891 ± 0.0029
40000 kPa	0.914 ± 0.028	0.44 ± 0.014	0.293 ± 0.009	0.205 ± 0.006	0.145 ± 0.005	0.127 ± 0.004	0.106 ± 0.0034	0.095 ± 0.0031
